One may read the IC50 as the concentration that inhibits the measured activity by half. Low values mean inhibition by little substance, high ones a need for much substance. Broadly, the Ki is a measure of affinity in units of concentration, obtained from inhibition or displacement.

Values joined by “and” are separate entries in the source; they are usually repeats but may differ in a detail not shown here. Equal values may be shown once.

Test [1] addresses T1, Acetylcholinesterase (Electrophorus electricus, UniProt O42275). In words: Inhibition of Electrophorus electricus AChE after 10 mins by Ellman's method. (DTNB colorimetry detects thiols as they appear.)
Test [2] concerns the target Butyrylcholinesterase (Equus caballus, UniProt Q9N1N9). Briefly: Inhibition of equine serum BuChE after 10 mins by Ellman's method.
Test [3] concerns SH-SY5Y. Briefly: Neuroprotective activity in human SH-SY5Y cells assessed as protection against rotenone/oligomycin-A-induced cell death at 1 uM after 24 hrs by MTT assay relative to control. Type of test: functional. (In general: Tetrazolium dyes change colour on reduction, which living cells bring about.)
The subject of test [4] is SH-SY5Y. Briefly: Neuroprotective activity in human SH-SY5Y cells assessed as protection against rotenone/oligomycin-A-induced cell death at 1 uM after 24 hrs by LDH release assay relative to control. Type of test: functional. A general note: LDH in the medium is a marker of cell lysis.
Test [5] has as its target T1, Acetylcholinesterase. Briefly: Non competitive inhibition of Electrophorus electricus AChE by Lineweaver-Burke plot analysis.
In test [6] the target is T1, Acetylcholinesterase. Briefly: Binding affinity to Electrophorus electricus AChE peripheral anionic site.

T1 sequence (O42275 whole entry): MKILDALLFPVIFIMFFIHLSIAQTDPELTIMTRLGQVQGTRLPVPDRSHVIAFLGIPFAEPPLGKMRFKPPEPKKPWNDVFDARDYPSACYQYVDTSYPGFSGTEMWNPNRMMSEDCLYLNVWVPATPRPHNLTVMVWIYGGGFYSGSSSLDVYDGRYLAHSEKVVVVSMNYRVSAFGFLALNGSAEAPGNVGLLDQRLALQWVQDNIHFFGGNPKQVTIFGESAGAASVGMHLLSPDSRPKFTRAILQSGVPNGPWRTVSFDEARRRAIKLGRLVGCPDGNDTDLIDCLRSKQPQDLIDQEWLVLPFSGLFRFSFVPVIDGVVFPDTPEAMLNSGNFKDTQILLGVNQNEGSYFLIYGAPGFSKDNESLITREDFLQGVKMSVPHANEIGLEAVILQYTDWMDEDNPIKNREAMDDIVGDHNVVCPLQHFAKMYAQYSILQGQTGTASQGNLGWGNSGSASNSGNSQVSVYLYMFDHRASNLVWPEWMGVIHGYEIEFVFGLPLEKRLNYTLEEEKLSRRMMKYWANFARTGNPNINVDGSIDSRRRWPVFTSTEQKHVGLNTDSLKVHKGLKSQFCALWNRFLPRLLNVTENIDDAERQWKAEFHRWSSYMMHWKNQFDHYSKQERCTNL
Butyrylcholinesterase, sequence (Q9N1N9 whole entry): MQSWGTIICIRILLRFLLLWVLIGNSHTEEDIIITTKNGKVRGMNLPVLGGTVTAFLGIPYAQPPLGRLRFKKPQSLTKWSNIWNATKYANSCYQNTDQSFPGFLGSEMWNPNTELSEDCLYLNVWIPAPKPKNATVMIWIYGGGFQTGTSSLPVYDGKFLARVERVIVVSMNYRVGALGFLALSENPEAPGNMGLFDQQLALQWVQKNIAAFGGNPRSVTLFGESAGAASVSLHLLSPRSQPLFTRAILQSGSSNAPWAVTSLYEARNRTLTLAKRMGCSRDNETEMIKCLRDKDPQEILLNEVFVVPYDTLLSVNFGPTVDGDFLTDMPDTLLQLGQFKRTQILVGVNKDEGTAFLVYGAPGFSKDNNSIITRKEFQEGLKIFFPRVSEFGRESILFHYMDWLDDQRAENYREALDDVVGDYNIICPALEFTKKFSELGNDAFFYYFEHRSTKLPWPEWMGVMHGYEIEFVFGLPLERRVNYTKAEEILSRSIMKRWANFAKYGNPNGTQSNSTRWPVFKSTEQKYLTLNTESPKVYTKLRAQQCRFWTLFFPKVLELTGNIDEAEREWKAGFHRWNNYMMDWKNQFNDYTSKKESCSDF

In the case of `N#Cc1c(N)nc(N2C3CCC2CC3)c(C#N)c1-c1ccccc1`, the IC50 was greater than 100 µM in test [1] and 3.8 µM in test [2]. Also, the Activity in test [3] is listed as 0.7%.
With `N#Cc1c(N)nc(Sc2ccccc2)c(C#N)c1-c1ccccc1`, the IC50 in test [1] and in test [2] was greater than 100 µM in each case. The Activity came to 11.2% in test [3] and 3.84% in test [4].
On to `N#Cc1c(Cl)nc(N2CCCC2)c(C#N)c1-c1ccccc1`, for which the figures for the IC50 in test [1] and in test [2] were 5.6 µM and greater than 100 µM, respectively. The Activity is 7.5% in test [3] and 37.7% in test [4].
The corresponding values for `N#Cc1c(N)nc(N2CCCCC2)c(C#N)c1-c1ccccc1` are greater than 100 µM, greater than 100 µM, 2.7% and 10.7%.
As for `CN(C)c1nc(Cl)c(C#N)cc1C#N`, the values for the IC50 in test [1] and in test [2] were 5 µM and greater than 100 µM, respectively. Moreover, the Activity in test [3] amounted to 6%.
Take `CCOc1nc(N)c(C#N)cc1C#N`: the IC50 in test [1] and in test [2] was greater than 100 µM throughout. Further, the values for the Activity in test [3] and in test [4] were 32.9% and 10.9%, respectively.
`C#CCNc1nc(N)c(C#N)cc1C#N`: the IC50 in test [1] and in test [2] was greater than 100 µM in each case. Besides, the Activity in test [3] is 17.7%.
For the molecule `N#Cc1cc(C#N)c(N2CCCC2)nc1Cl`, the IC50 in test [1] is 0.8 µM; in test [2], greater than 100 µM. Also, the Activity in test [3] is 7.5%; in test [4], 32%.
As to `N#Cc1cc(C#N)c(N2CCC(O)CC2)nc1N`, the IC50 in test [1] and in test [2] was greater than 100 µM in each case. Besides, the Activity in test [3] is reported as 3%; in test [4] it was 15.1%.
Take `N#Cc1c(N)nc(NCc2ccccc2)c(C#N)c1-c1ccccc1`: the half-inhibitory concentration (IC50) in test [1] and in test [2] was greater than 100 µM each time. Moreover, the Activity in test [3] came out at 10.6%.
In the case of `N#Cc1cc(C#N)c(NCCO)nc1N`, the IC50 in test [1] and in test [2] was greater than 100 µM throughout. Also, the figures for the Activity in test [3] and in test [4] were 21.4% and 3%, respectively.
Turning to `N#Cc1cc(C#N)c(N2CCCC2)nc1N`, the IC50 in test [1] is 3.5 µM; in test [2], greater than 100 µM. For the same molecule, the Activity in test [3] worked out at 20.1%.
For `CN(C)c1nc(Cl)c(C#N)c(-c2ccccc2)c1C#N`, in that order: 10 µM, greater than 100 µM and 0%.
Take `N#Cc1c(N)nc(S)c(C#N)c1-c1ccccc1`: the IC50 in test [1] and in test [2] was greater than 100 µM in each case. The Activity is given as 5.8% in test [3] and 14.1% in test [4].
As to `N#Cc1cc(C#N)c(N2CCCCC2)nc1Cl`, the figures for the IC50 in test [1] and in test [2] were 9.5 µM and greater than 100 µM, respectively. For the same molecule, the Activity in test [3] is reported as 14.7%. Further, affinity in test [5] was put at a Ki of 17.2 µM.
As to `N#Cc1cc(C#N)c(N2C3CCC2CC3)nc1N`, the IC50 in test [1] and in test [2] was greater than 100 µM throughout. The Activity in test [3] was 0%.
Regarding `CN(C)c1nc(N)c(C#N)cc1C#N`, the IC50 in test [1] is 22.7 µM; in test [2] it was greater than 100 µM. Moreover, the Activity is on record as 12.9% in test [3] and 36.2% in test [4].
On to `N#Cc1cc(C#N)c(OCCCc2ccccc2)nc1N`, for which the IC50 in test [1] and in test [2] was greater than 100 µM throughout. Besides, the Activity in test [3] is reported as 0%.
Regarding `N#Cc1c(Cl)nc(N2C3CCC2CC3)c(C#N)c1-c1ccccc1`, the IC50 in test [1] and in test [2] was greater than 100 µM throughout. Besides, the Activity in test [3] is 12.9%.
Regarding `N#Cc1cc(C#N)c(N2CCC(Cc3ccccc3)CC2)nc1N`, the IC50 in test [1] and in test [2] was greater than 100 µM throughout. For the same molecule, in test [3], the Activity is on record as 19.1%.
`N#Cc1c(Cl)nc(N2CCCCC2)c(C#N)c1-c1ccccc1`: the IC50 in test [1] and in test [2] was greater than 100 µM each time. Besides, in test [3], the Activity was 0%.
In the case of `CC[N+](C)(CC)CCC[n+]1c(-c2ccccc2)c2cc(N)ccc2c2ccc(N)cc21` [PROPIDIUM], in test [6], the Ki is 8.6 µM and 8.9 µM.
Turning to `COc1nc(N)c(C#N)cc1C#N`, the IC50 in test [1] and in test [2] was greater than 100 µM throughout. Moreover, the Activity in test [3] is recorded as 11%.
`CN(C)c1nc(N)c(C#N)c(-c2ccccc2)c1C#N`: the IC50 in test [1] and in test [2] was greater than 100 µM throughout. In test [3], the Activity turned out to be 0%.
For `N#Cc1cc(C#N)c(N2C3CCC2CC3)nc1Cl`, the IC50 came to 75 µM in test [1] and 24 µM in test [2]. For the same molecule, the values for the Activity in test [3] and in test [4] were 7.5% and 31.6%, respectively.
On to `N#Cc1cc(C#N)c(N2CCCCC2)nc1N`, for which the results for the IC50 in test [1] and in test [2] were greater than 100 µM and 26 µM, respectively. The Activity stood at 10.2% in test [3] and 14.8% in test [4].

The values above are taken from ChEMBL document CHEMBL1212877, “Multipotent drugs with cholinergic and neuroprotective properties for the treatment of Alzheimer and neuronal vascular diseases. I. Synthesis, biological assessment, and molecular modeling of simple and readily available 2-aminopyridine-, and 2-chloropyridine-3,5-dicarbonitriles” (Bioorg Med Chem, 2010).
